Assay results as given in patent US20230095276A1, “ESTERS OF A RETINOID AND A TOCOPHEROL OR TERT-BUTYLHYDROQUINONE AND PREPARATIONS THEREOF” (Conagen Inc., priority 2021, published 2023).

Experiments:
Type in all cases: cell-based
[1] = molecular target: T1, RAR beta (Homo sapiens, UniProt P10826); assay: RAR beta agonist reporter cell assay (Gal4 DBD receptor hybrid, luciferase); settings: for Fold Activation: 23 hours, vs DMSO; for agonist activity towards RAR beta (in words): summary of Table 1
T1 sequence (P10826 183-417 limits assumed): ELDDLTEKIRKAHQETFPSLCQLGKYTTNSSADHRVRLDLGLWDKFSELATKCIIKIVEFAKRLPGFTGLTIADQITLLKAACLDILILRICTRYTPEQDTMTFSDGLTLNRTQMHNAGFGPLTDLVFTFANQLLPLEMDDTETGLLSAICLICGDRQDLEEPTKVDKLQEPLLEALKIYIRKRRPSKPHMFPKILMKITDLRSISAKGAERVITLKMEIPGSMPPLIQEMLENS
Method: (§1) Reporter Cells (Indigo Biosciences, catalog #IB02201, IB02101, IB00821) were used in the assays. The reporter cells expressed a receptor hybrid in which the native N-terminal DNA binding domain (DBD) had been replaced with that of the yeast Gal4 DBD. The reporter gene, firefly luciferase, is functionally linked to the Gal4 upstream activation sequence (UAS). Receptor assays were performed as follows, Steps 1 to 3.
(§2) Step 1: A suspension of Reporter Cells was prepared in Cell Recovery Medium (CRM: containing charcoal-stripped FBS) and 100 μL of the Reporter Cell suspension was dispensed into each of the wells of a white 96-well assay plate. Step 2: Test and reference compound master stocks were prepared as solutions at 1,000× concentration in DMSO relative to the final treatment concentration. This intermediate stock was subsequently diluted directly into INDIGO Biosciences's Compound Screening Medium (CSM; containing charcoal-stripped FBS) to generate ‘2×-concentration’ treatment media. 100 μL of each prepared treatment medium was dispensed into duplicate assay wells pre-dispensed with a 100 μL suspension of Reporter Cells, thereby achieving the desired final treatment concentrations. The concentration of residual DMSO in all assay wells was 0.1% for the test and reference compounds. Assay plates were incubated at 37° C., 5% CO2 and ˜70% humidity for 23 hours. DMSO control was used to determine background activity. Retinoic acid was used with its EC100 concentration to show 100% activity of each receptor. Retinol served as positive control.
(§3) Step 3: Following the incubation period, treatment media were discarded and 100 μL/well of Luciferase Detection Reagent was added per well to determine receptor activity in terms of relative luminescence units (RLUs). Data processing: Fold activation: [Ave RLU Test Cmpd/Ave RLU DMSO].

[2] = system: RAR gamma; assay: RAR gamma agonist reporter cell assay (Gal4 DBD receptor hybrid, luciferase); settings: for Fold Activation: 23 hours, vs DMSO; for agonist activity towards RAR gamma (in words): summary of Table 1
Method: Reporter Cells (Indigo Biosciences, catalog #IB02201, IB02101, IB00821) were used in the assays. The reporter cells expressed a receptor hybrid in which the native N-terminal DNA binding domain (DBD) had been replaced with that of the yeast Gal4 DBD. The reporter gene, firefly luciferase, is functionally linked to the Gal4 upstream activation sequence (UAS). Receptor assays were performed as follows, Steps 1 to 3. Step 1: A suspension of Reporter Cells was prepared in Cell Recovery Medium (CRM: containing charcoal-stripped FBS) and 100 μL of the Reporter Cell suspension was dispensed into each of the wells of a white 96-well assay plate. Step 2: Test and reference compound master stocks were prepared as solutions at 1,000× concentration in DMSO relative to the final treatment concentration. […] The concentration of residual DMSO in all assay wells was 0.1% for the test and reference compounds. Assay plates were incubated at 37° C., 5% CO2 and ˜70% humidity for 23 hours. DMSO control was used to determine background activity. […] Retinol served as positive control. Step 3: Following the incubation period, treatment media were discarded and 100 μL/well of Luciferase Detection Reagent was added per well to determine receptor activity in terms of relative luminescence units (RLUs). Data processing: Fold activation: [Ave RLU Test Cmpd/Ave RLU DMSO].

[3] = molecular target: T2, RAR alpha (Homo sapiens, UniProt P10276); assay: RAR alpha agonist reporter cell assay (Gal4 DBD receptor hybrid, luciferase); settings: for Fold Activation: 23 hours, vs DMSO; for agonist activity towards RAR alpha (in words): summary of Table 1
T2 sequence (P10276 183-417 limits assumed): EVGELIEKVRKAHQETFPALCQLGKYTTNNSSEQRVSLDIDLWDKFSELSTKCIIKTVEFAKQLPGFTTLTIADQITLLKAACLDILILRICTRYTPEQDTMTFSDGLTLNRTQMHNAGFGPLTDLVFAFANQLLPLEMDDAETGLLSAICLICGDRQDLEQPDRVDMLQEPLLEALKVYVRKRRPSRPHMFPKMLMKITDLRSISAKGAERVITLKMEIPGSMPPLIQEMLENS
Method: as §1, §2, §3

Row | Compound | Fold Activation ([1]; RAR beta, 0.01 μM) | Fold Activation ([1]; RAR beta, 0.1 μM) | Fold Activation ([1]; RAR beta, 1 μM) | agonist activity towards RAR beta (in words) [1] | Fold Activation ([2]; RAR gamma, 0.01 μM) | Fold Activation ([2]; RAR gamma, 0.1 μM) | Fold Activation ([2]; RAR gamma, 1 μM) | agonist activity towards RAR gamma (in words) [2] | Fold Activation ([3]; RAR alpha, 0.01 μM) | Fold Activation ([3]; RAR alpha, 0.1 μM) | Fold Activation ([3]; RAR alpha, 1 μM) | agonist activity towards RAR alpha (in words) [3] | activity compared with retinoic acid ([1]; RAR beta) | activity compared with retinol ([1]; RAR beta, all tested concentrations) | activity compared with retinoic acid ([2]; RAR gamma) | activity compared with retinol ([2]; RAR gamma, all tested concentrations) | activity compared with retinoic acid ([3]; RAR alpha) | activity compared with retinol ([3]; RAR alpha, all tested concentrations)
1 | CC1=C(/C=C/C(C)=C/C=C/C(C)=C/C(=O)Oc2c(C)c(C)c3c(c2C)CCC(C)(CCCC(C)CCCC(C)CCCC(C)C)O3)C(C)(C)CCC1 (racemic) [(±)α-tocopheryl retinoate] | 0.882 fold | 6.33 fold | 149 fold | exhibited agonist activity | 1.79 fold | 23.8 fold | 365 fold | exhibited agonist activity | 1.27 fold | 9.14 fold | 552 fold | exhibited agonist activity |  |  |  |  |  | 
2 | CC1=C(/C=C/C(C)=C/C=C/C(C)=C/C(=O)Oc2ccc(O)c(C(C)(C)C)c2)C(C)(C)CCC1 [3-tert-Butyl-4-hydroxyphenyl retinoate, 3-tert-butyl-4-hydroxyphenyl retinoate] | 232 fold | 287 fold | 331 fold | exhibited agonist activity | 541 fold | 1,010 fold | 701 fold | exhibited agonist activity | 1,573 fold | 2,768 fold | 3,414 fold | exhibited agonist activity | comparable activity to retinoic acid | higher activity than retinol at all tested concentrations | comparable activity to retinoic acid | higher activity than retinol at all tested concentrations | comparable activity to retinoic acid | higher activity than retinol at all tested concentrations
3 | CC1=C(/C=C/C(C)=C/C=C/C(C)=C/C(=O)Oc2cc(C)c3c(c2)CC[C@@](C)(CCC[C@H](C)CCC[C@H](C)CCCC(C)C)O3)C(C)(C)CCC1 [(+)δ-Tocopheroyl retinoate, (+)δ-tocopheroyl retinoate] | 1.57 fold | 3.96 fold | 53.4 fold | exhibited agonist activity | 1.10 fold | 8.45 fold | 315 fold | exhibited agonist activity | 0.620 fold | 5.25 fold | 251 fold | exhibited agonist activity |  |  |  |  |  | 
4 | CC1=C(/C=C/C(C)=C/C=C/C(C)=C/C(=O)O)C(C)(C)CCC1 [Retinoic acid, reference compound] |  |  |  |  |  | 706 fold |  |  |  |  |  |  |  |  |  |  |  | 
5 | CC1=C(/C=C/C(C)=C/C=C/C(C)=C/CO)C(C)(C)CCC1 [Retinol, reference compound] | 1.63 fold | 4.91 fold | 127 fold |  | 2.28 fold | 18.5 fold | 368 fold |  | 1.77 fold | 6.35 fold | 518 fold |  |  |  |  |  |  | 
